From patent US9187467B2, “2-phenyl benzothiazole linked imidazole compounds as potential anticancer agents and process for the preparation thereof” (Council of Scientific and Industrial Research, priority 2012, dated 2015)
Read-outs that look alike come from different tables or passages of the source.

What was measured:
Format in all cases: cell-based, human
[1] = system: OVCAR-4; experiment: SRB anticancer assay, ovarian; settings: Homo sapiens, OVCAR-4, 48 h
[2] = system: OVCAR-3; experiment: SRB anticancer assay, ovarian; parameters: Log10GI50: unit not given here
[3] = system: MALME-3M; experiment: SRB anticancer assay, melanoma; parameters: Log10GI50: unit not given here
[4] = system: Renal cancer cell lines; experiment: SRB anticancer assay, panel result
How it was run: (§1)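 Sulforhodamine B protein assay served as the read-out of cell viability or growth. Cells were exposed continuously to compound for 48 h, with dose–response measured at a minimum of five 10-fold-spaced concentrations.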

[5] = system: Colon cancer cell lines; experiment: SRB anticancer assay, panel result
How it was run: as §1

[6] = system: Non-small cell lung cancer cell lines; experiment: SRB anticancer assay, panel result
How it was run: as §1

[7] = system: Ovarian cancer cell lines; experiment: SRB anticancer assay, panel result
How it was run: as §1

[8] = system: Prostate cancer cell lines; experiment: SRB anticancer assay, panel result
How it was run: as §1

[9] = system: CNS cancer cell lines; experiment: SRB anticancer assay, panel result
How it was run: as §1

[10] = system: Melanoma cancer cell lines; experiment: SRB anticancer assay, panel result
How it was run: as §1

[11] = system: Leukemia cancer cell lines; experiment: SRB anticancer assay, panel result
How it was run: as §1

[12] = system: Breast cancer cell lines; experiment: SRB anticancer assay, panel result
How it was run: as §1

[13] = system: EKVX; experiment: SRB anticancer assay, non-small lung; parameters: Log10GI50: unit not given here
[14] = system: HCT-116; experiment: SRB anticancer assay, colon; settings: Homo sapiens, HCT-116, 48 h
[15] = system: SNB-75; experiment: SRB anticancer assay, CNS; parameters: Log10GI50: unit not given here
[16] = system: HS 578T; experiment: SRB anticancer assay, breast; parameters: Log10GI50: unit not given here
[17] = system: SK-MEL-5; experiment: SRB anticancer assay, melanoma; settings: Homo sapiens, SK-MEL-5, 48 h
[18] = system: A549/ATCC; experiment: SRB anticancer assay, non-small lung; parameters: Log10GI50: unit not given here
[19] = system: KM12; experiment: SRB anticancer assay, colon; settings: Homo sapiens, KM12, 48 h
[20] = system: K-562; experiment: SRB anticancer assay, leukemia; parameters: Log10GI50: unit not given here
[21] = system: TK-10; experiment: SRB anticancer assay, renal; settings: Homo sapiens, TK-10, 48 h
[22] = system: SF-295; experiment: SRB anticancer assay, CNS; parameters: Log10GI50: unit not given here
[23] = system: HT29; experiment: SRB anticancer assay, colon; settings: Homo sapiens, HT-29; HT29, 48 h
[24] = system: UACC-257; experiment: SRB anticancer assay, melanoma
[25] = system: NCI/ADR-RES; experiment: SRB anticancer assay, ovarian; parameters: Log10GI50: unit not given here; settings: for Log10GI50: present compounds
[26] = system: MDA-MB-231/ATCC; experiment: SRB anticancer assay, breast; parameters: Log10GI50: unit not given here; settings: for GI50: Homo sapiens, MDA-MB-231, 48 h, 48 h, read-out: GI50

COc1ccc(-c2cncn2-c2ccc(-c3nc4cc(OC)c(OC)c(OC)c4s3)cc2)cc1N [Compound 7j, 2-Methoxy-5-(1-(4-(5,6,7-trimethoxybenzo[d]thiazol-2-yl)phenyl)-1H-imidazol-5-yl)benzeneamine]
GI50 [1]: 6.29 µM | GI50 ([2]; Homo sapiens, OVCAR-3, 48 h): 5.18 µM | Log10GI50 ([2]; OVCAR-3, present compounds): −5.29 | GI50 ([3]; Homo sapiens, Malme-3M, 48 h): 2.48 µM | Log10GI50 ([3]; MALME-3M, present compounds): −5.61 | CC50 ([4]; Homo sapiens, Renal panel, 50% net cell death, read-out: mean graph midpoint value (MG_MID) of Log10 LC50 (converted)): > 100 µM | GI50 ([4]; Homo sapiens, eight renal cancer cell lines, exposure at least 48 h, read-out: GI50, range over the panel): 1.99 to 9.44 µM | mean graph midpoint value (MG_MID) of Log10 GI50 ([4]; Renal panel): −5.31 log10(mol/L) | mean graph midpoint value (MG_MID) of log10 TGI ([4]; Renal panel, total inhibition of net cell growth): −4.14 | mean graph midpoint value (MG_MID) of Log10 GI50 ([5]; Colon panel): −5.40 log10(mol/L) | mean graph midpoint value (MG_MID) of log10 TGI ([5]; Colon panel, total inhibition of net cell growth): −4.11 | LC50 ([5]; Homo sapiens, Colon panel, 50% net cell death, read-out: mean graph midpoint value (MG_MID) of Log10 LC50 (converted)): > 100 µM | GI50 ([5]; Homo sapiens, seven colon cancer cell lines, exposure at least 48 h, read-out: GI50, range over the panel): 2.94 to 6.21 µM | LC50 ([6]; Homo sapiens, Non-small cell lung panel, 50% net cell death, read-out: mean graph midpoint value (MG_MID) of Log10 LC50 (converted)): > 100 µM | GI50 ([6]; Homo sapiens, nine Non-small cell lung cancer cell lines, exposure at least 48 h, read-out: GI50, range over the panel): 3.37 to 25.7 µM | mean graph midpoint value (MG_MID) of Log10 GI50 ([6]; Non-small cell lung panel): −5.18 log10(M) | mean graph midpoint value (MG_MID) of log10 TGI ([6]; Non-small cell lung panel, total inhibition of net cell growth): −4.11 | LC50 ([7]; Homo sapiens, Ovarian panel, 50% net cell death, read-out: mean graph midpoint value (MG_MID) of Log10 LC50 (converted)): > 100 µM | GI50 ([7]; Homo sapiens, seven ovarian cancer cell lines, exposure at least 48 h, read-out: GI50, range over the panel): 3.12 to 6.29 µM | mean graph midpoint value (MG_MID) of Log10 GI50 ([7]; Ovarian panel): −4.93 mol/L | mean graph midpoint value (MG_MID) of log10 TGI ([7]; Ovarian panel, total inhibition of net cell growth): >−4.0 | LC50 ([8]; Homo sapiens, Prostate panel, 50% net cell death, read-out: mean graph midpoint value (MG_MID) of Log10 LC50 (converted)): > 100 µM | GI50 ([8]; Homo sapiens, two prostate cancer cell lines (PC-3, DU-145), exposure at least 48 h, read-out: GI50, range over the panel): 2.59 to 6.38 µM | mean graph midpoint value (MG_MID) of Log10 GI50 ([8]; Prostate panel): −5.39 mol/L | mean graph midpoint value (MG_MID) of log10 TGI ([8]; Prostate panel, total inhibition of net cell growth): >−4.0 | mean graph midpoint value (MG_MID) of Log10 GI50 ([9]; CNS panel): −4.53 mol/L | mean graph midpoint value (MG_MID) of log10 TGI ([9]; CNS panel, total inhibition of net cell growth): >−4.0 | CC50 ([9]; Homo sapiens, CNS panel, 50% net cell death, read-out: mean graph midpoint value (MG_MID) of Log10 LC50 (converted)): > 100 µM | GI50 ([9]; Homo sapiens, six CNS cancer cell lines, exposure at least 48 h, read-out: GI50, range over the panel): 4.44 to 52.3 µM | LC50 ([10]; Homo sapiens, Melanoma panel, 50% net cell death, read-out: mean graph midpoint value (MG_MID) of Log10 LC50 (converted)): 81.3 µM | GI50 ([10]; Homo sapiens, nine melanoma cancer cell lines, exposure at least 48 h, read-out: GI50, range over the panel): 1.73 to 13.7 µM | mean graph midpoint value (MG_MID) of Log10 GI50 ([10]; Melanoma panel): −5.17 log10(mol/L) | mean graph midpoint value (MG_MID) of log10 TGI ([10]; Melanoma panel, total inhibition of net cell growth): −4.26 | LC50 ([11]; Homo sapiens, Leukemia panel, 50% net cell death, read-out: mean graph midpoint value (MG_MID) of Log10 LC50 (converted)): > 100 µM | GI50 ([11]; Homo sapiens, six leukemia cancer cell lines, exposure at least 48 h, read-out: GI50, range over the panel): 2.2 to 4 µM | mean graph midpoint value (MG_MID) of Log10 GI50 ([11]; Leukemia panel): −5.49 log10(mol/L) | mean graph midpoint value (MG_MID) of log10 TGI ([11]; Leukemia panel, total inhibition of net cell growth): −4.20 | mean graph midpoint value (MG_MID) of Log10 GI50 ([12]; Breast panel): −4.96 mol/L | mean graph midpoint value (MG_MID) of log10 TGI ([12]; Breast panel, total inhibition of net cell growth): >−4.0 | CC50 ([12]; Homo sapiens, Breast panel, 50% net cell death, read-out: mean graph midpoint value (MG_MID) of Log10 LC50 (converted)): > 100 µM | GI50 ([12]; Homo sapiens, six breast cancer cell lines, exposure at least 48 h, read-out: GI50, range over the panel): 3.02 to 28.3 µM | GI50 ([13]; Homo sapiens, 48 h): 7.54 µM | Log10GI50 ([13]; present compounds): −5.12 | GI50 [14]: 3.78 µM | GI50 ([15]; Homo sapiens, SNB-75, 48 h): 52.3 µM | Log10GI50 ([15]; SNB-75, present compounds): −4.28 | GI50 ([16]; Homo sapiens, 48 h): 6.21 µM | Log10GI50 ([16]; present compounds): −4.55 | GI50 [17]: 1.73 µM | GI50 ([18]; Homo sapiens, 48 h): 5.77 µM | Log10GI50 ([18]; present compounds): −5.24 | GI50 [19]: 3.8 µM | GI50 ([20]; Homo sapiens, K562, K-562, 48 h): 3.38 µM | Log10GI50 ([20]; K-562, present compounds): −5.47 | GI50 [21]: 4.16 µM | GI50 ([22]; Homo sapiens, SF-295, 48 h): 4.44 µM | Log10GI50 ([22]; SF-295, present compounds): −5.35 | GI50 [23]: 3.87 µM | GI50 ([24]; Homo sapiens, UACC-257, 48 h): > 100 µM | Log10GI50 ([24]; UACC-257, present compounds): >−4.0 log10(M) | GI50 ([25]; Homo sapiens, NCI/ADR-RES, 48 h): 3.12 µM | Log10GI50 ([25]; NCI/ADR-RES (row head NCI/ADR-)): −5.51 | Log10GI50 ([25]; listed as head printed RES (second line of NCI/ADR-RES)): >−4.0 | GI50 ([26]; MDA-MB-231/ATCC (row head MDA-MB-)): > 100 µM | GI50 ([26]; row head printed 231/ATCC (second line of MDA-MB-231/ATCC)): 28.3 µM | Log10GI50 ([26]; MDA-MB-231/ATCC, present compounds): >−4.0
